Assay results taken from patent US10167299B2, “1-(3-aminopropyl) substituted cyclic amine compounds, preparation method therefor, and pharmaceutical compositions and uses thereof” (SHANGHAI INSTITUTE OF MATERIA MEDICA, CHINESE ACADEMY OF …, priority 2013, dated 2019).
≈ marks a conversion by molar mass, not a printed value. Read-outs that look alike come from different tables or passages of the source.

Assays:
[1] = Toxicity test of compounds on HOS-CD4-CCR5 cells (MTT); format: cell-based; details: human; HOS-CD4+-CCR5 cells (Table 7)
Procedure: (§1) The compound to be tested was subject to 5-fold dilution in a 96-well microtiter plate with RPMI-1640 or DMEM complete medium (containing 10% FBS) (Six dilution) triplicate for each dilution and 100 μl for each well. While wells not containing drugs were set as control. Into each well was added 100 μl of 4×10^5/ml PM1, HOS-CD4-CCR5 cells or 100 μl of 5×10^6/ml PHA stimulated PBMC. The cells were cultured at 37° C. with 5% CO2 for three days (PBMC cells were cultured for seven days and 100 μl of fresh RPMI-1640 complete medium was supplemented on the third day). Cytotoxicity was tested with MTT assay. OD values were measured by ELx800 microplate reader. The detection wavelength was 570 nm, and the reference wavelength was 630 nm.

HIV-1Ba-L virus strain [2] = assay: Inhibition of viral replication in PBMC infected with HIV-1Ba-L; format: cell-based
Procedure: (§2) The virus was titrated according to the modified method of Johnson & Byington. Briefly, the HIV-1 stock solution was subject to four-fold dilution in a 96-well plate (ten gradients) sextuplicate for each gradient, while setting six control-wells. Into each well was added 100 μl (5×10^6/ml) PHA-stimulated PBMC cells and final volume per well was 200 μl. The cells were cultured at 37° C. with 5% CO2. On the third day, 100 μl of fresh RPMI-1640 complete medium was supplemented. On the seventh day, the infected supernatant was collected and lysed with 0.5% Triton X100. The p24 antigen was detected by ELISA and TCID50 of virus was calculated according to Reed & Muench method (50% Tissue culture infection dose).
(§3) The compound to be tested was subject to 5-fold dilution in 48-well plate with RPMI-1640 complete medium (containing 10% FBS). The starting concentration was 1 μM, six dilutions were obtained, and each well contained 200 μl mixture. While wells not containing drugs were set as control. Virus (MOI=0.01) was added to 5×10^6/ml of PBMC cells which have been stimulated by PHA for 72 h. After homogeneously mixed, the mixture was immediately added to 48-well plate containing diluted drug and each well was added with 200 μl of mixture. MVC was used as positive control. The cells were cultured at 37° C. with 5% CO2 for seven days (drug with the same concentration was added on the third day). The supernatant was collected, lysed and inactivated with 0.5% Triton X-100. The inhibition effect of drug on HIV-1 replication was detected using p24 antigen capture ELISA method.

HIV-1SF162 virus strain [3] = assay: Inhibition activity on TZM-bl cells infected with HIV-1SF162; details: for EC50: Human immunodeficiency virus 1, TZM-bl; for therapeutic index (TI): TZM-bl cells infected with HIV-1SF162; for cytotoxicity in vitro and therapeutic index in words, versus positive control compound: TZM-bl cells infected with HIV-1SF162, conclusion from Table 3
HIV-1SF162 virus strain [4] = assay: Inhibition of viral replication in HOS-CD4-CCR5 cells infected with HIV-1SF162; format: cell-based
Procedure: (§4) On the day before the test, 1×10^5/ml of HOS-CD4-CCR5 cells were inoculated in 96-well plates with 100 μl for each well. The compound to be tested was subject to 5-fold dilution in 96-well microtiter plate with DMEM complete medium (containing 10% FBS). The starting concentration was 1 μM and six dilutions were obtained. Triplicate wells were set for each dilution and each well contained 100 μl mixture. While wells not containing drugs were set as control. The supernatant was removed and 100 μl of drug was added and incubated for 2 h. Then 100 μl of HIV-1SF162 and HIV-1Ba-L were added to dilute supernatant. The cells were infected for 1 h, free virus was washed out and drug with the same final concentration was added. MVC was used as positive control. The cells were cultured at 37° C. with 5% CO2 for three days. The supernatant was collected, lysed and inactivated with 0.5% Triton X-100. The inhibition effect of drug on HIV-1 replication was detected using p24 antigen capture ELISA method.

HIV-1SF162 virus strain [5] = assay: Inhibition of viral replication in PBMC infected with HIV-1SF162; format: cell-based
Procedure: as §2, with “On the third day, 100 μl of fresh RPMI-1640 complete medium was supplemented.” left out
as §3, with “The” for “The compound to be tested was subject to 5-fold dilution in 48-well plate with RPMI-1640 complete medium (containing 10% FBS). The”, “Virus (MOI=0.01) was added to 5×10^6/ml of PBMC cells which have been stimulated by PHA for 72 h.” left out

[6] = Cytotoxicity (CC50) in TZM-bl cells; format: cell-based; details: human; TZM-bl cells (Table 3); read-out: CC50
HIV-1KM018 virus strain = assay: Inhibition of viral replication in PBMC infected with HIV-1KM018; format: cell-based
Procedure: as §2, with “On the third day, 100 μl of fresh RPMI-1640 complete medium was supplemented.” left out
as §3, with “The” for “The compound to be tested was subject to 5-fold dilution in 48-well plate with RPMI-1640 complete medium (containing 10% FBS). The”, “Virus (MOI=0.01) was added to 5×10^6/ml of PBMC cells which have been stimulated by PHA for 72 h.” left out

HIV-1Ba-L virus strain [7] = assay: Inhibition of viral replication in HOS-CD4-CCR5 cells infected with HIV-1Ba-L; format: cell-based
Procedure: as §4

[8] = Toxicity test of compounds on PBMC cells (MTT); format: cell-based; details: human, PBMC cells (Table 4)
Procedure: as §1

in vivo = details: male, rat
Procedure: The administration volume was 10 mL/kg and drug was formulated with DMSO/Tween 80/physiological saline (5:5:90, v/v/v). […] 2 h after dosing, the rats ate together.
At above time points, 0.3 ml of venous blood was taken from retrobulbar venous plexus of the rat and loaded into EDTA-2K anticoagulative tube. After centrifuged at 11000 rpm for 5 mm, the plasma was separated and frozen at −20° C. in a refrigerator.
The concentration of each compound in rat plasma was determined by LC/MS/MS.
The pharmacokinetic parameters after administration were calculated by using non-compartment model of WinNonlin 5.3 software (Pharsight Corporation, USA).

hERG = hERG (Homo sapiens (Human), UniProt Q12809); details: human
hERG, sequence (Q12809 whole entry): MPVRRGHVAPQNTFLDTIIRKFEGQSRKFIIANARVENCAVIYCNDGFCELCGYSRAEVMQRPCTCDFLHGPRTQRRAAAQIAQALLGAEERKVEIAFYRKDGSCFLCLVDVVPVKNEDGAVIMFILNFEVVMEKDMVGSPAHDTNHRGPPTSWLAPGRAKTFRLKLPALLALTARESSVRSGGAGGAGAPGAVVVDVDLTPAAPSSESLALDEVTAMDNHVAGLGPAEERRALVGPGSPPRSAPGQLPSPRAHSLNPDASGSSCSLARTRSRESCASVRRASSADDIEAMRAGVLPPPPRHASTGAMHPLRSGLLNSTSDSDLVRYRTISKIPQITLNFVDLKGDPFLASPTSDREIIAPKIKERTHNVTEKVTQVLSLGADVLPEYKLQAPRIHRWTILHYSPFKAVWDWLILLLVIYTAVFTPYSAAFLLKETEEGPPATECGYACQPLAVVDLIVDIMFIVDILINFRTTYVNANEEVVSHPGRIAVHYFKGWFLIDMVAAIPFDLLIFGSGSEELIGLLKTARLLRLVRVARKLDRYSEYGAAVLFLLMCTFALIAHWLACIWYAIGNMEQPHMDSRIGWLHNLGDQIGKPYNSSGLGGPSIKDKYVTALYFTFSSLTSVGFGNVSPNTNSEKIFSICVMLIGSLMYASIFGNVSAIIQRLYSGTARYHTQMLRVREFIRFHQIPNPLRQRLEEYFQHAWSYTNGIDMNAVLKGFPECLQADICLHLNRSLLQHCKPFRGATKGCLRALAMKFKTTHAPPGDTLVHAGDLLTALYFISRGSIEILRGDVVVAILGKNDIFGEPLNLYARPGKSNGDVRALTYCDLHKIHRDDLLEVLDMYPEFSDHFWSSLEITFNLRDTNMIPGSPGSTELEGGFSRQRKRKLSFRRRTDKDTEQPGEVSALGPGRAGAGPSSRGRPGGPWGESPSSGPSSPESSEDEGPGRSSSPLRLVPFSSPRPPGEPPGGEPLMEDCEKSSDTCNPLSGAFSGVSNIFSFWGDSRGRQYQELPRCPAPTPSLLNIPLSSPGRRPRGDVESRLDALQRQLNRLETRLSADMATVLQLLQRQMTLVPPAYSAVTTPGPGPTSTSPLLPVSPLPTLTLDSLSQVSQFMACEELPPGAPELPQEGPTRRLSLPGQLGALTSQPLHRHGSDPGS
Procedure: CHO-hERG cells which have been incubated overnight were added with sample buffer and incubated for 90 minutes at room temperature in darkness.
The sample buffer was removed and assay buffer was added.
The compound is added to the cell plate and incubated for 20 minutes in darkness.
Cell plate was placed into FDSS. The fluorescence signal was recorded every second for 10 seconds. Exciting buffer was added to the cells at the 10th second and the fluorescence signal was recorded every second for 180 seconds

[9] = Human immunodeficiency virus 1, PBMC
[10] = PBMC cells infected with HIV-1Ba-L
[11] = Human immunodeficiency virus 1, HOS-CD4-CCR5
[12] = PBMC cells infected with HIV-1SF162
[13] = PBMC cells infected with HIV-1KM018
[14] = HOS-CD4+-CCR5 cells infected with HIV-1SF162

Cc1nnc(C(C)C)n1C1CC2CCC(C1)N2CC[C@H](NC(=O)C1CCCC1)c1cccs1 (stereo partly drawn) [Compound 18, N-[(1S)-3-[exo-3-(3-isopropyl-5-methyl-4H-1,2,4-triazol-4-yl)-8-azabicyclo[3.2.1]octane-8-yl]-1-(thiophen-2-yl)propyl]cyclopentane-1-carboxamide]
CC50 at 3 days [1]: 507 µg/mL (≈ 1080 µM) | EC50 (HIV-1Ba-L virus strain [2]; [9]): 0.289 µg/mL (≈ 0.616 µM) | therapeutic index (TI) (HIV-1Ba-L virus strain [2]; [10]): 2266.5 | EC50 (HIV-1SF162 virus strain [3]): 0.00123 µg/mL (≈ 0.00262 µM) | therapeutic index (TI) (HIV-1SF162 virus strain [3]): >162601.63 | cytotoxicity in vitro and therapeutic index in words, versus positive control compound (HIV-1SF162 virus strain [3]): better than positive control compound | EC50 (HIV-1SF162 virus strain [4]; [11]): 0.0203 µg/mL (≈ 0.0432 µM) | EC50 (HIV-1SF162 virus strain [5]; [9]): 0.0927 µg/mL (≈ 0.197 µM) | therapeutic index (TI) (HIV-1SF162 virus strain [5]; [12]): 3721 | CC50 [6]: > 200 µg/mL | EC50 (HIV-1KM018 virus strain; [9]): 0.0699 µg/mL (≈ 0.149 µM) | therapeutic index (TI) (HIV-1KM018 virus strain; [13]): 4935.2 | EC50 (HIV-1Ba-L virus strain [7]; [11]): 0.0034 µg/mL (≈ 0.00724 µM) | CC50 at 7 days [8]: 345 µg/mL (≈ 735 µM) | bioavailability (in vivo): 90.5% | AUC(0-t) (in vivo; 10 mg/kg): 1550 ng·h/mL | AUC(0-inf) (in vivo; iv, 10 mg/kg): 1600 ng·h/mL | AUC(0-t) (in vivo; iv, 10 mg/kg): 1550 ng·h/mL | Cmax (in vivo; iv, 10 mg/kg): 771 ng/mL | MRT (in vivo; iv, 10 mg/kg): 1.98 h | Tmax (in vivo; iv, 10 mg/kg): 0.25 h | half-life (in vivo; iv, 10 mg/kg): 1.81 h | AUC(0-inf) (in vivo; po, 20 mg/kg): 3070 ng·h/mL | AUC(0-t) (in vivo; po, 20 mg/kg): 2800 ng·h/mL | Cmax (in vivo; po, 20 mg/kg): 690 ng/mL | MRT (in vivo; po, 20 mg/kg): 2.94 h | Tmax (in vivo; po, 20 mg/kg): 2 h | bioavailability (in vivo; po, 20 mg/kg): 90.5% | half-life (in vivo; po, 20 mg/kg): 2.05 h

Cc1nnc(C(C)C)n1C1CC2CCC(C1)N2CC[C@H](NC(=O)C1CCCCC1)c1cccs1 (some centres unmarked) [Compound 16]
CC50 at 3 days [1]: 343 µg/mL (≈ 709 µM) | EC50 (HIV-1Ba-L virus strain [2]; [9]): 0.365 µg/mL (≈ 0.754 µM) | therapeutic index (TI) (HIV-1Ba-L virus strain [2]; [10]): 1301.1 | EC50 (HIV-1SF162 virus strain [3]): 0.0118 µg/mL (≈ 0.0244 µM) | therapeutic index (TI) (HIV-1SF162 virus strain [3]): >16963.53 | cytotoxicity in vitro and therapeutic index in words, versus positive control compound (HIV-1SF162 virus strain [3]): comparable with the positive control compound | therapeutic index (TI) (HIV-1SF162 virus strain [4]; [14]): 8042 | EC50 (HIV-1SF162 virus strain [4]; [11]): 0.0427 µg/mL (≈ 0.0882 µM) | EC50 (HIV-1SF162 virus strain [5]; [9]): 0.455 µg/mL (≈ 0.941 µM) | therapeutic index (TI) (HIV-1SF162 virus strain [5]; [12]): 586.3 | IC50 (hERG): 3.02 µM | CC50 [6]: > 200 µg/mL | EC50 (HIV-1KM018 virus strain; [9]): 0.555 µg/mL (≈ 1.15 µM) | therapeutic index (TI) (HIV-1KM018 virus strain; [13]): 481.1 | EC50 (HIV-1Ba-L virus strain [7]; [11]): 0.0105 µg/mL (≈ 0.0216 µM) | CC50 at 7 days [8]: 267 µg/mL (≈ 552 µM) | bioavailability (in vivo): 14.8% | AUC(0-t) (in vivo; 10 mg/kg): 5110 ng·h/mL | AUC(0-inf) (in vivo; iv, 10 mg/kg): 5110 ng·h/mL | AUC(0-t) (in vivo; iv, 10 mg/kg): 5110 ng·h/mL | Cmax (in vivo; iv, 10 mg/kg): 4320 ng/mL | MRT (in vivo; iv, 10 mg/kg): 0.79 h | Tmax (in vivo; iv, 10 mg/kg): 0.25 h | half-life (in vivo; iv, 10 mg/kg): 0.31 h | AUC(0-inf) (in vivo; po, 20 mg/kg): 1510 ng·h/mL | AUC(0-t) (in vivo; po, 20 mg/kg): 1510 ng·h/mL | Cmax (in vivo; po, 20 mg/kg): 631 ng/mL | MRT (in vivo; po, 20 mg/kg): 2.11 h | Tmax (in vivo; po, 20 mg/kg): 0.25 h | bioavailability (in vivo; po, 20 mg/kg): 14.8% | half-life (in vivo; po, 20 mg/kg): 1.16 h

Cc1nnc(C(C)C)n1C1CCN(CC[C@H](NC(=O)C2CCCC2)c2cccs2)CC1 [Compound 17, N-[(1S)-3-[4-(3-isopropyl-5-methyl-4H-1,2,4-triazol-4-yl)-piperidin-1-yl]-1-(thiophen-2-yl)propyl]cyclopentane-1-carboxamide]
CC50 at 3 days [1]: 439 µg/mL (≈ 990 µM) | EC50 (HIV-1Ba-L virus strain [2]; Human immunodeficiency virus 1, PBMC cells infected with HIV-1Ba-L, read-out: EC50): 0.848 µg/mL (≈ 1.91 µM) | therapeutic index (TI) (HIV-1Ba-L virus strain [2]; [10]): 438.6 | EC50 (HIV-1SF162 virus strain [3]): 0.0129 µg/mL (≈ 0.0292 µM) | therapeutic index (TI) (HIV-1SF162 virus strain [3]): >15444.02 | cytotoxicity in vitro and therapeutic index in words, versus positive control compound (HIV-1SF162 virus strain [3]): comparable with the positive control compound | therapeutic index (TI) (HIV-1SF162 virus strain [4]; [14]): 8632 | EC50 (HIV-1SF162 virus strain [4]; Human immunodeficiency virus 1, HOS-CD4+-CCR5 cells infected with HIV-1SF162, read-out: EC50): 0.0509 µg/mL (≈ 0.115 µM) | EC50 (HIV-1SF162 virus strain [5]; Human immunodeficiency virus 1, PBMC cells infected with HIV-1SF162, read-out: EC50): 0.0413 µg/mL (≈ 0.0931 µM) | therapeutic index (TI) (HIV-1SF162 virus strain [5]; [12]): 10621 | CC50 [6]: > 200 µg/mL | EC50 (HIV-1KM018 virus strain; Human immunodeficiency virus 1, PBMC cells infected with HIV-1KM018, read-out: EC50): > 1 µg/mL | therapeutic index (TI) (HIV-1KM018 virus strain; [13]): <438.6 | EC50 (HIV-1Ba-L virus strain [7]; Human immunodeficiency virus 1, HOS-CD4+-CCR5 cells infected with HIV-1Ba-L, read-out: EC50): 0.0155 µg/mL (≈ 0.035 µM) | CC50 at 7 days ([8]; PHA stimulated PBMC): 439 µg/mL (≈ 989 µM) | half-life (in vivo; iv, 10 mg/kg): 2.22 h | half-life (in vivo; po, 20 mg/kg): 1.78 h
